The term IC50 denotes the concentration that gives 50% inhibition. The term EC50 denotes the concentration giving half of the maximal effect.

For data set [1], the target named is T1, Aβ 1-42 (Homo sapiens, UniProt P05067).
T1 construct: The reaction solutions contained Aβ 1-42 at concentrations
Briefly: Fluorometric H2O2 assay (inhibition of Abeta H2O2 production). Type of data set: biochemical. The conditions noted are these: concentration required to inhibit 50% of Abeta H2O2 production; read-out: H2O2 IC50. The method in brief:
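Reactions in PBS pH 7.4 at 37 C for 60 min, containing Aβ, copper and test compound. H2O2 output read as fluorescence of HRP-coupled deacetylated DCF. Fluorescence converted to H2O2 concentration via H2O2 standards.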

For data set [2], the system named is dityrosine oligomerization. Briefly: CuTy: inhibition of dityrosine oligomerization. As to conditions: referenced to in-house standard (set as 100% inhibition). In kind it is biochemical.
The target of data set [3] is T2, Abeta:Zn (25:50 μM) Synthetic Aggregations (Homo sapiens, UniProt P05067).
T2 construct: PB Compound Mediated Dissolution of Aggregated Abeta 1-42; purchased Keck Laboratory, Yale University School of Medicine
T2 sequence (P05067 672-713 limits assumed): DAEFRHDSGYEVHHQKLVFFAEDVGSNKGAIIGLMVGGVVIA
Nature of the data set: Disaggregation of Abeta:Zn synthetic aggregates (ThT fluorescence). Type of data set: biochemical. Put shortly:
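ThT signal (excitation 450 nm, emission 480 nm) measured after compounds at final 1, 5, 10, 25 and 50 μM acted 2 h at 37 degrees on preformed aggregates. Those aggregates came from 24 h rotating incubation of 25 μM Abeta1-42, 50 μM ZnCl2 and 50 μM ThT in PBS pH 6.6.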

Data set [4] can be described thus: Mice plasma concentration after oral dose. Type of data set: in vivo. As to conditions: 30 min to 4 h after single or repeat oral dose of 30 mg/kg.

T1 sequence (P05067 672-713 limits assumed): as above

On to `CN(C)Cc1ccc2c(Cl)cc(Cl)c(O)c2n1.Cl` [PB 1033], for which, in data set [1], the 50% inhibitory concentration (IC50) turned out to be 0.35 µM. For the same molecule, in data set [2], the “CuTy % inhibition of dityrosine oligomerization” value amounted to 100%. In addition, in data set [3] (5 μM test compound), the “Disaggregation % Aggregate reduction at 5 μM” value is 33.2%. Moreover, the EC50 in data set [3] (Abeta:Zn 25:50 μM aggregates) turned out to be 18.6 µM. Also, in data set [4], the Mice plasma concentration result is “Up to 500 ng/ml ng/mL”.

The values above are taken from patent US9163018B2, “Method of treatment of age-related macular degeneration (AMD)” (Prana Biotechnology Limited, priority 2006, dated 2015).
